Test results reported in paper PMC5602898, “Ornithine uptake and the modulation of drug sensitivity in Trypanosoma brucei” (FASEB journal : official publication of the Federation of …, 2017).

Legend:
TbAAT2-4 = molecular target: T1, TbAAT2-4 (Trypanosoma brucei, UniProt Q57Y06); test: competition of radiolabelled histidine uptake in S. cerevisiae […]Δ8AA; format: cell-based; details: 200 μM histidine, 2 mM competitor, pH 5.5, 30 °C
T1 construct: gene Tb04.1D20.560; full-length ORF amplified from T. brucei 427 genomic DNA, vector pDR197, expressed in Saccharomyces cerevisiae 22Δ8AA; no tag told
T1 sequence (Q57Y06 entry or part of it): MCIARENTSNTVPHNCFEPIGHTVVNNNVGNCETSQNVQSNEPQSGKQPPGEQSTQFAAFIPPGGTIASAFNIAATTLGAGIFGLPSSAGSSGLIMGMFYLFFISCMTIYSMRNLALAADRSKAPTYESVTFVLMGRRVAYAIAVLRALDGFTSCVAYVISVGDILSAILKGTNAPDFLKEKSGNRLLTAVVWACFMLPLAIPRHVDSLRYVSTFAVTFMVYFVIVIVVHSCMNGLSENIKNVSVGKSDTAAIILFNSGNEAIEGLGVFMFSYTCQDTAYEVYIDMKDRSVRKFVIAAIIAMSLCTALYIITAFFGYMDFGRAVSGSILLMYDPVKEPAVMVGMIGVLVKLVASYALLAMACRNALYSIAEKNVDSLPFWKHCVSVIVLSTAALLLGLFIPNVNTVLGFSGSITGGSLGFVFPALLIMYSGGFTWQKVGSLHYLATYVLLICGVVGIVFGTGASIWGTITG

[1] = test system: N[C@@H](Cc1c[nH]cn1)C(=O)O; test: cells, lysate or membranes; details: L-[3H]histidine, labelled compound, 50 mM potassium phosphate pH 5.5, 0.6 M sorbitol, 100 mM glucose preincubation, 30 °C, empty-vector uptake subtracted
[2] = substrate: NCCC[C@H](N)C(=O)O; test: cells, lysate or membranes; details: L-[3H]ornithine, labelled compound, 50 mM potassium phosphate pH 5.5, 0.6 M sorbitol, 100 mM glucose preincubation, 30 °C, empty-vector uptake subtracted

Molecule: N=C(N)NCCC[C@H](N)C(=O)O [arginine]
- % of control uptake at 2 mM (TbAAT2-4): TbAAT2-4-mediated histidine uptake was inhibited by several amino acids, including arginine and lysine

Molecule: NCCCC[C@H](N)C(=O)O [lysine]
- % of control uptake at 2 mM (TbAAT2-4; also supports yeast growth on lysine): TbAAT2-4-mediated histidine uptake was inhibited by several amino acids, including arginine and lysine

Molecule: TbAAT2-4 (Trypanosoma brucei brucei TREU927)
- Km [1]: 20.5 ± 8.6 µM

B1: TbAAT10-1 (Trypanosoma brucei brucei TREU927) (protein)
chain: MSNVRGNITPAVVYASNEPNALNASDDGIKNYEAYEDIQSNNSESKFAPFSKLSKKIAAVIPPGGIFASAFNIAATTLGAGIFGLPSTANGSGLVMGILYLVIINCMTIYSMYNLALAAERSKALTYEGVTFVVLGRWAAYAIAAVRAFDGFTSCIAYVISVGDIFSSILKGTDAPEFWKGNTGNRLLTALLWLCCMLPLVIPRHVDSLRHVSTCAVTFMVYFVIVIVVHSCLNGLPENIKDVSVGKSDTAAIILFNSGNAAVEGLGVFMFSYTCQDTAYEIYMDMKDRSVRKFVISSAIAMCMCTVLYILTVFFGYMDFGRDVTGSILLMYDPVNEPAVMVGMIGVLVKLIASYALLAMACRNALYSIAGKNADVLPFWKHCASVVTLSVAALVLGLFIPKVNTVLGFAGSITGGSLGYIFPSLLLMYSGGFTWQRVGPFHYLVAYGLLISGVVGVVFGTGATIWGTIVG
- Km [2]: 4.3 ± 1.5 µM
